SMILES strings stand for the structures.

In this assay the test system is model of memory impairment induced by scopolamine. The assay is described as follows: Y-maze test in scopolamine-treated mice. It counts as in vivo, ICR mice. The conditions noted are these: scopolamine 1 mg/Kg i.p.; for Alternation Behavior (%): Table 6, 8 minutes in Y-maze; for Total Entry: Table 7, total number of entry to each branch, 8 minutes. On the procedure:
An experiment was conducted to confirm effects of swertisin or isoorientin, and extracts of Swertia pseudochinensis or Swertia japonica containing the same prepared in Examples 1 to 3 in treating dementia by using a model of memory impairment induced by scopolamine. Detailed method follows.
Six-week old ICR mice in about 26 g to 28 g (Orientbio Inc, Republic of Korea) were received water and feed without constraint and adapted for 5 days under an environment having about 23±1° C. of temperature, about 60±10% of humidity and 12-hour light/dark cycle (animal laboratory at College of Pharmacy, Kyung-Hee University), and then used for the experiment.
A Y-maze was prepared for the experiment. The Y-maze has 3 branches and each branch has 42 cm of length, 3 cm of width and 12 cm of height. Angle between any two arms is 120 degrees and the arms were made of black polyvinyl resin.
The mice prepared in the above 1) were separated into 5 groups (10 mice per each group) comprised of drug administration groups 1 and 2, and controls 1 to 3.
The swertisin prepared in Example 3 (8 mg) was dissolved in 4 mL of 10% Tween 80 (Polyoxyethylene sorbitan monooleate: Sigma, U.S.A.), and administered to the drug administration groups 1 and 2 in an amounts of 5 mg/Kg and 10 mg/Kg respectively. Meanwhile, 5 mg/Kg of donepezil was administered to the control 1, and 0.15 mL of 10% Tween 80 was administered to the controls 2 and 3 respectively.
About 30 minutes later, 1 mg/Kg of scopolamine, which was dissolved in distilled water, was intraperitoneally administered to the drug administration groups 1 and 2, and controls 1 and 2 (Ebert, U. et al., Eur. J. Clin. Invest., 28, pp. 944-949, 1998), and 0.9% of saline solution was intraperitoneally administered to the control 3.
After 30 minutes, mice of the drug administration groups 1 and 2, and the controls 1-3 were carefully located on each branches of the Y-maze, which was divided as A, B and C respectively, and let the mice move freely for 8 minutes, and then recorded branches where mice have entered. The entrance was recorded when the entire body (i.e. including the tail) has completely entered. It was also recorded when the mice entered again into the branch that the mice have entered before.
One point was scored when the mouse sequentially entered into 3 different branches (actual alternation). Alternation behavior is defined as sequentially entering into every 3 branch, and it was converted into % via Equation 1 below (Sarter, M. et al., Psychopharmacology., 94, pp. 491-495, […]).

On to `COc1cc2oc(-c3ccc(O)cc3)cc(=O)c2c(O)c1[C@@H]1O[C@H](CO)[C@@H](O)[C@H](O)[C@H]1O` [swertisin], for which, for the setting “swertisin 5 mg/kg”, the “Alternation Behavior (%)” value came out at 56.22 ± 12.29% and the “Total Entry” value was 27.10 ± 7.795. Further, under “swertisin 10 mg/kg”, the “Alternation Behavior (%)” value stood at 59.36 ± 5.653% and the “Total Entry” value worked out at 28.88 ± 4.155.

For the origin of these results see patent US10251902B2, “Pharmaceutical composition for treating or preventing neuropsychiatric disease, containing flavone-6-C-glucose derivatives as active ingredients” (priority 2013, dated 2019).
